Experimental data as given in patent US9610274B2, “Methods for treating bipolar disorder” (priority 2010, dated 2017).

Experiments:
Format in all cases: in vivo
[1] = test system: homozygous mutant dopamine transporter knockout (KO) mice; assay: Spontaneous activity in the open field, dopamine transporter KO mice; settings: single SC injection, test compound 10, 30, 100 mg/kg, amphetamine 2 mg/kg, 90 min post-injection, relative to vehicle
Description: Male and female wild-type and homozygous mutant dopamine transporter KO mice (n˜10 mice/genotype/agent; produced by in vivo homologous recombination and bred at Duke University Medical Center, Durham, N.C.) were tested for spontaneous activity in the open field following a single injection of the vehicle or compound. […] All drugs were given in a volume of 5 mL/kg. Animals were returned to the open field for an additional 90 min. Spontaneous activity was evaluated in an automated Omnitech Digiscan apparatus (Accuscan Instruments, Columbus, Ohio). Activity was summated at 5 min intervals over the 2 h period of testing. Horizontal activity or locomotion was measured in terms of the total distance covered in cm, vertical activity or rearing was expressed in terms of the total numbers of vertical beam breaks, and stereotypy was quantified in terms of repetitive breaks of a given beam or beams with intervals of less than 1 sec. For the analyses, 10 WT and 10 KO mice were run in each of the treatment groups with approximately equal numbers of males and females assigned to each group. Data were analyzed by the Statistical Package for Social Sciences programs (version 11.0 for Windows; SPSS Science, Chicago, Ill.). The results for each dependent variable were analyzed by repeated analyses of variance (RMANOVA) for within subjects effects (group differences over time) and between-subjects effects (tests of main effects and interactions). Bonferroni corrected pair-wise comparisons were used as the post-hoc tests. A p <0.05 was considered significant.

wild-type mice = assay: Spontaneous activity in the open field, wild-type mice; settings: WT mice; amphetamine 2 mg/kg SC; relative to vehicle
Description: Male and female wild-type and homozygous mutant dopamine transporter KO mice (n˜10 mice/genotype/agent; produced by in vivo homologous recombination and bred at Duke University Medical Center, Durham, N.C.) were tested for spontaneous activity in the open field following a single injection of the vehicle or compound. Mice were placed into the open field for 30 min and administered SC the vehicle (sterile water), 2 mg/kg amphetamine, or three concentrations of the test compound (10, 30, 100 mg/kg). All drugs were given in a volume of 5 mL/kg. Animals were returned to the open field for an additional 90 min. Spontaneous activity was evaluated in an automated Omnitech Digiscan apparatus (Accuscan Instruments, Columbus, Ohio). […] Horizontal activity or locomotion was measured in terms of the total distance covered in cm, vertical activity or rearing was expressed in terms of the total numbers of vertical beam breaks, and stereotypy was quantified in terms of repetitive breaks of a given beam or beams with intervals of less than 1 sec. […] Data were analyzed by the Statistical Package for Social Sciences programs (version 11.0 for Windows; SPSS Science, Chicago, Ill.). The results for each dependent variable were analyzed by repeated analyses of variance (RMANOVA) for within subjects effects (group differences over time) and between-subjects effects (tests of main effects and interactions). […]

isolated mice = assay: Isolation-induced fighting in mice; settings: Mus musculus
Description: Male CD-1 mice (15-20 g) were utilized in this experiment. The test compound (15, 22 and 30 mg/kg) was dissolved in physiological saline (0.9%) and administered orally (PO) in a volume of 1 mL/100 g body weight.
Mice were isolated for up to 8 weeks in individual solid walled wire cages (24×20×17 cm). The animals were not disturbed except to replenish food. Aggression was tested by placing an intruder mouse into the home cage of the resident animal. Aggression was characterized by an attack on the “intruder” during a three minute period. […] Only those resident mice displaying fighting behavior were selected. […] ED50 values were calculated from the percent inhibition of fighting in computer program based on probit analysis.

[2] = test system: adult human subjects with moderate or severe major depression without psychotic features; assay: Randomized double-blind placebo- and active-controlled 6-week study in major depression; settings: paroxetine 20 mg/day; for MADRS response rate / MADRS remission rate: Week 6; for MADRS response rate: >50% improvement in MADRS total score; for MADRS remission rate: MADRS total score less than 9
Description: The primary objective of this study was to determine the efficacy of 2 target doses of test compound (200 and 400 mg/day) in comparison with placebo during 6 weeks of treatment in adult human subjects with moderate or severe major depression without psychotic features. An active comparator (paroxetine) was included to assist in distinguishing a negative study from a failed study. In addition, an exit interview was intended to gather information on unexpected benefits of the test compound in order to refine the clinical development program. […] In addition, positive effects of the test compound on ratings of physical energy/fitness, reduction in sadness or depression and mental energy or motivation.
This was a randomized, double-blind, parallel-group, active, and placebo-controlled, multicenter study conducted in the U.S. (23 centers) and Canada (4 centers). There were 2 phases: a pretreatment phase (screening/washout and a baseline visit) and a 6-week, double-blind treatment phase. Paroxetine, a positive control, was included to evaluate assay sensitivity. After washout (if needed) of prohibited substances, subjects were randomly assigned (1:1:1:1) to receive the test compound titrated to a target dose of 200 mg/day or 400 mg/day, matching placebo, or a fixed dose (20 mg/day) of paroxetine. Study drug was given twice daily for 6 weeks. Efficacy and safety were assessed weekly during the double-blind phase. Subjects completing the study underwent an Exit Interview (“Your Health and Well-Being”) and completed an Assessment of Benefits of Clinical-trial Drug-treatment (ABCD) questionnaire (U.S. sites only).

[3] = ITT (LOCF), change from baseline at Week 6
[4] = Per-Protocol (LOCF), change from baseline at Week 6

## CC(N)Cc1ccccc1 (stereo not drawn) [Amphetamine, amphetamine, reference compound]
[1]
  spontaneous activity (locomotor, rearing and stereotypical activities): decreased them in KO animals
wild-type mice
  spontaneous activity (locomotor, rearing and stereotypical activities): increased locomotor, rearing and stereotypical activities in WT mice

## CN(C)CCCN1c2ccccc2CCc2ccccc21 [Imipramine, imipramine, reference compound]
Isolated mice; 1 h, 15 mg/kg PO, 60 min after dosing
  inhibition at 15 mg/kg: 20%
Isolated mice; 1 h, 30 mg/kg PO, 60 min after dosing
  inhibition at 30 mg/kg: 50%
Isolated mice; PO, inhibition of isolation-induced fighting, probit analysis, read-out: ED50 (mg/kg, PO) (confidence limits)
  ED50: ~30 mg/kg

## Fc1ccc([C@@H]2CCNC[C@H]2COc2ccc3c(c2)OCO3)cc1 [Paroxetine, paroxetine, reference compound]
[2]; ITT (LOCF)
  MADRS response rate: 48%
  MADRS remission rate: 26%
[2]; [3]
  3 Atypical items of HAM-D 31, mean result: −0.6
  CGI-S score, mean result: −1.5
  MADRS core mood subscale, mean result: −9.7
  MADRS sadness (Items 1 + 2), mean result: −3.9
  MADRS total score (primary), mean result: −14.1
[2]; ITT (LOCF), test compound 200 mg and 400 mg
  superiority to placebo on the primary endpoint (change from baseline at Week 6 in MADRS total score): statistically significant superiority to placebo
[2]; Per-Protocol (LOCF)
  MADRS response rate: 60%
  MADRS remission rate: 35%
[2]; [4]
  CGI-S score, mean result: −1.9
  MADRS total score, mean result: −17.1
[2]; post hoc analyses, of 51 items, U.S. sites
  ABCD questionnaire items with statistically significant superiority to placebo: 14 items
